Where “and” joins values, the source holds several entries; their conditions need not be identical. Equal entries are not always repeated. Inconclusive results and toxic doses are left out.

Drawing on PubChem BioAssay AID330 (DTP/NCI, 2004), this text covers T/C for 26 compounds.

The subject of this assay is P388 leukemia ip, CD2F1 mice, survival T/C. The experiment in a line: NCI In Vivo Anticancer Drug Screen. Data for tumor model P388 Leukemia (intraperitoneal) in CD2F1 (CDF1) mice. The settings on record: endpoint: median survival time, higher = longer survival. In outline:
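Mice carrying the transplanted tumor received test compound or vehicle. Survival was recorded in each group, and the value is the treated-group measurement divided by that of the vehicle-treated control group.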

Where [1] appears, read: dose: 60.0 mg/kg/injection, schedule: Q01DX005 (ip), vehicle: saline with Tween-80.
Where [2] appears, read: dose: 120.0 mg/kg/injection, schedule: Q01DX005 (ip), vehicle: saline with Tween-80.
[3] abbreviates: dose: 240.0 mg/kg/injection, schedule: Q01DX005 (ip), vehicle: saline with Tween-80.
Setting [4] is: dose: 50.0 mg/kg/injection, schedule: Q01DX009 (ip), vehicle: Klucel (hydroxypropylcellulose) (HPC).
[5] abbreviates: dose: 12.5 mg/kg/injection, schedule: Q01DX009 (ip), vehicle: saline with Tween-80.
[6] abbreviates: dose: 25.0 mg/kg/injection, schedule: Q01DX009 (ip), vehicle: saline with Tween-80.
[7] abbreviates: dose: 50.0 mg/kg/injection, schedule: Q01DX009 (ip), vehicle: saline with Tween-80.
Where [8] appears, read: dose: 200.0 mg/kg/injection, schedule: Q01DX009 (ip), vehicle: saline with Tween-80.
The mark [9] stands for this setting: dose: 100.0 mg/kg/injection, schedule: Q01DX009 (ip), vehicle: Klucel (hydroxypropylcellulose) (HPC).
[10] abbreviates: dose: 100.0 mg/kg/injection, schedule: Q01DX001 (ip), vehicle: Klucel (hydroxypropylcellulose) (HPC).
Where [11] appears, read: dose: 200.0 mg/kg/injection, schedule: Q01DX001 (ip), vehicle: Klucel (hydroxypropylcellulose) (HPC).
Where [12] appears, read: dose: 400.0 mg/kg/injection, schedule: Q01DX001 (ip), vehicle: Klucel (hydroxypropylcellulose) (HPC).
Where [13] appears, read: dose: 100.0 mg/kg/injection, schedule: Q01DX009 (ip), vehicle: saline with Tween-80.
The mark [14] stands for this setting: dose: 50.0 mg/kg/injection, schedule: Q01DX005 (ip), vehicle: saline with Tween-80.
Setting [15] is: dose: 100.0 mg/kg/injection, schedule: Q01DX005 (ip), vehicle: saline with Tween-80.
Setting [16] is: dose: 200.0 mg/kg/injection, schedule: Q01DX005 (ip), vehicle: saline with Tween-80.
Setting [17] is: dose: 100.0 mg/kg/injection, schedule: Q04DX002 (ip), vehicle: saline with Tween-80.
Where [18] appears, read: dose: 200.0 mg/kg/injection, schedule: Q04DX002 (ip), vehicle: saline with Tween-80.
Where [19] appears, read: dose: 400.0 mg/kg/injection, schedule: Q04DX002 (ip), vehicle: saline with Tween-80.
[20] abbreviates: dose: 200.0 mg/kg/injection, schedule: Q01DX009 (ip), vehicle: Klucel (hydroxypropylcellulose) (HPC).

Take `CC(C)(C)c1cc(-c2c3nc(c(-c4cc(C(C)(C)C)c(O)c(C(C)(C)C)c4)c4ccc([nH]4)c(-c4cc(C(C)(C)C)c(O)c(C(C)(C)C)c4)c4nc(c(-c5cc(C(C)(C)C)c(O)c(C(C)(C)C)c5)c5ccc2[nH]5)C=C4)C=C3)cc(C(C)(C)C)c1O`: the T/C reads like this: under setting [1], 90 % of control; under setting [2], 88 % of control; under setting [3], 88 % of control.
Consider `Cc1nc2c(ccc3ccccc32)s1`, for which the T/C by setting is: (dose: 50.0 mg/kg/injection, schedule: Q01DX005 (ip), vehicle: Klucel (hydroxypropylcellulose) (HPC)) 106 % of control; (dose: 100.0 mg/kg/injection, schedule: Q01DX005 (ip), vehicle: Klucel (hydroxypropylcellulose) (HPC)) 100 % of control; (dose: 200.0 mg/kg/injection, schedule: Q01DX005 (ip), vehicle: Klucel (hydroxypropylcellulose) (HPC)) 100 % of control.
As for `O=[N+]([O-])c1c(N2CCN(CCO)CC2)nc2ccccn12`, the T/C (dose: 12.5 mg/kg/injection, schedule: Q01DX009 (ip), vehicle: Klucel (hydroxypropylcellulose) (HPC)) is 99 % of control; the T/C (dose: 25.0 mg/kg/injection, schedule: Q01DX009 (ip), vehicle: Klucel (hydroxypropylcellulose) (HPC)) is 91 % of control; the T/C under setting [4] is 105 % of control.
As to `Cn1c(=O)c2[nH]c(CN(CCCl)CCCl)nc2n(C)c1=O`, the T/C (dose: 0.66 mg/kg/injection, schedule: Q01DX009 (ip), vehicle: saline with Tween-80) is 109 % of control; the T/C (dose: 1.0 mg/kg/injection, schedule: Q01DX009 (ip), vehicle: saline with Tween-80) was 115 % of control; the T/C (dose: 6.6 mg/kg/injection, schedule: Q04DX003 (ip), vehicle: saline with Tween-80) was 95 % of control; the T/C (dose: 10.0 mg/kg/injection, schedule: Q04DX003 (ip), vehicle: saline with Tween-80) was 113 % of control; the T/C under setting [5] is 263 % of control; the T/C (dose: 12.5 mg/kg/injection, schedule: Q04DX003 (ip), vehicle: saline with Tween-80) is 150 % of control. The T/C by setting is: under setting [6], 219 % of control; (dose: 25.0 mg/kg/injection, schedule: Q04DX003 (ip), vehicle: saline with Tween-80) 163 % of control; (dose: 50.0 mg/kg/injection, schedule: Q04DX003 (ip), vehicle: saline with Tween-80) 218 % of control.
For `NNC(=O)C(NC=O)C(N)=O` (centres undefined), the T/C reads like this: under setting [5], 107 % of control; under setting [6], 100 % of control; under setting [7], 98 % of control; (dose: 50.0 mg/kg/injection, schedule: Q01DX009 (ip), vehicle: saline) 88 % of control; (dose: 200.0 mg/kg/injection, schedule: Q01DX009 (ip), vehicle: saline) 92 % of control.
As to `O=c1c2ccccc2[nH]c2c([N+](=O)[O-])ccc(Oc3ccc(CCc4ccc(Oc5ccc([N+](=O)[O-])c6[nH]c7ccccc7c(=O)c56)cc4)cc3)c12`, the T/C reads like this: (dose: 6.25 mg/kg/injection, schedule: Q01DX009 (ip), vehicle: saline with Tween-80) 101 % of control; under setting [5], 100 % of control; under setting [6], 100 % of control; under setting [8], 91 % of control.
For the compound `NC(=O)CCCSC1=CC(=O)c2ccccc2C1=O`, the T/C reads like this: (dose: 3.12 mg/kg/injection, schedule: Q04DX002 (ip), vehicle: saline with Tween-80) 104 % of control; (dose: 6.25 mg/kg/injection, schedule: Q04DX002 (ip), vehicle: saline with Tween-80) 101 % of control; (dose: 12.5 mg/kg/injection, schedule: Q04DX002 (ip), vehicle: saline with Tween-80) 111 % of control and 114 % of control.
In the case of `COc1ccc2cc1Oc1ccc(cc1)CC1c3cc(c(OC)cc3CCN1C)Oc1c(O)c(OC)cc3c1C(C2)N(C)CC3` (centres undefined), the T/C was 95 % of control (dose: 15.0 mg/kg/injection, schedule: Q01DX009 (ip), vehicle: Klucel (hydroxypropylcellulose) (HPC)); 93 % of control (dose: 30.0 mg/kg/injection, schedule: Q01DX009 (ip), vehicle: Klucel (hydroxypropylcellulose) (HPC)); 97 % of control (dose: 60.0 mg/kg/injection, schedule: Q01DX009 (ip), vehicle: Klucel (hydroxypropylcellulose) (HPC)).
Regarding `CCOC(=O)c1ccc(NC(=O)SC2=NCCS2)cc1`, the T/C was 101 % of control under setting [4] and 103 % of control under setting [9].
With `CC1(C)C=CC(=O)C=C1C#N`, the T/C was 92 % of control under setting [10], 104 % of control under setting [11] and 106 % of control under setting [12].
As for `CC[n+]1ccc(/C=C\c2c(Cl)cccc2Cl)cc1`, the T/C is 96 % of control (dose: 6.25 mg/kg/injection, schedule: Q01DX009 (ip), vehicle: saline); 104 % of control (dose: 12.5 mg/kg/injection, schedule: Q01DX009 (ip), vehicle: saline); 106 % of control (dose: 25.0 mg/kg/injection, schedule: Q01DX009 (ip), vehicle: saline).
In the case of `O=C1c2ccccc2C(=O)N1C(CO)Cc1ccccc1` (centres undefined), the T/C is 100 % of control under setting [7], 95 % of control under setting [13] and 108 % of control under setting [8].
Regarding `CCOc1cccc(/C=N/N=C2\C(=O)Nc3c(Cl)cc(Cl)cc32)c1O`, the T/C is, setting by setting: under setting [14], 89 % of control; under setting [15], 92 % of control; under setting [16], 91 % of control.
Regarding `CSc1nc2c(=S)[nH]cnc2s1`, the T/C by setting is: under setting [17], 95 % of control; under setting [18], 92 % of control; under setting [19], 92 % of control.
As for `Cc1cc(C)c2nc(N/N=C/c3cccnc3)sc2c1`, the T/C by setting is: under setting [4], 95 % of control; under setting [9], 92 % of control; under setting [20], 92 % of control.
For `CC(=O)c1c(O)c2cccc3c2n(c1=O)CCC3`, the T/C is 96 % of control (dose: 60.0 mg/kg/injection, schedule: Q01DX005 (ip), vehicle: Klucel (hydroxypropylcellulose) (HPC)) and 97 % of control (dose: 120.0 mg/kg/injection, schedule: Q01DX005 (ip), vehicle: Klucel (hydroxypropylcellulose) (HPC)).
Turning to `CC(O)(c1ccc(Br)cc1)C1CC1` (centres undefined), the T/C runs as follows: under setting [10], 103 % of control; under setting [11], 91 % of control; under setting [12], 96 % of control.
With `c1cc2[nH]c3ccncc3c2cn1`, the T/C under setting [6] was 102 % of control and the T/C under setting [7] was 105 % of control.
Turning to `CCCCN(C)C12CN3CN(CN(C3)C1)C2`, the T/C reads like this: under setting [4], 101 % of control; under setting [9], 103 % of control; under setting [20], 96 % of control.
Regarding `COC(=O)C(CCCN=C(N)N[N+](=O)[O-])NC(=O)c1ccc2c(c1O)C(=O)c1ccccc1C2=O` (centres undefined), the T/C is, setting by setting: under setting [17], 96 % of control; under setting [18], 92 % of control; under setting [19], 92 % of control.
Regarding `COc1ccc(-c2nc(N)nc(-c3nc(N)nc(-c4ccc(OC)cc4)c3-c3ccc(OC)cc3)c2-c2ccc(OC)cc2)cc1`, the T/C reads like this: under setting [1], 96 % of control; under setting [2], 96 % of control; under setting [3], 99 % of control.
`Cc1cccnc1I`: the T/C by setting is: under setting [1], 98 % of control; under setting [2], 99 % of control; under setting [3], 101 % of control.
On to `CC(=O)OCCOCNC(=S)NCc1ccco1`, for which the T/C is, setting by setting: under setting [1], 106 % of control; under setting [2], 102 % of control; under setting [3], 98 % of control.
For the compound `CC1(C)CC1(Cl)S(C)(=O)=O` (centres undefined), the T/C by setting is: (dose: 100.0 mg/kg/injection, schedule: Q01DX001 (ip), vehicle: saline with Tween-80) 106 % of control; (dose: 200.0 mg/kg/injection, schedule: Q01DX001 (ip), vehicle: saline with Tween-80) 105 % of control; (dose: 400.0 mg/kg/injection, schedule: Q01DX001 (ip), vehicle: saline with Tween-80) 100 % of control.
In the case of `CN(C)c1ccc(C2(c3ccc(N(C)C)cc3)NNC(=O)c3ccccc32)cc1`, the T/C under setting [14] was 93 % of control, the T/C under setting [15] was 90 % of control and the T/C under setting [16] was 86 % of control.
In the case of `CC1(C(=O)O)CCCC2(C)C3=C(CCCC3)CCC12` (centres undefined), the T/C was 104 % of control under setting [13]; 100 % of control under setting [8]; 95 % of control (dose: 400.0 mg/kg/injection, schedule: Q01DX009 (ip), vehicle: saline with Tween-80).
